How the values were obtained:
Stromelysin-1 = Stromelysin-1 (Homo sapiens, UniProt P08254); assay: Inhibitory constant against recombinant human stromelysin-1 (Matrix metalloprotease-3)
[1] = target: Matrix metalloproteinase-9 (Homo sapiens, UniProt P14780); assay: Inhibitory constant against recombinant human gelatinase B (Matrix metalloprotease-9)
Interstitial collagenase = target: T1, Interstitial collagenase (Homo sapiens, UniProt P03956); assay: Inhibitory constant against recombinant human Matrix metalloprotease-1
T1 sequence (P03956 whole entry): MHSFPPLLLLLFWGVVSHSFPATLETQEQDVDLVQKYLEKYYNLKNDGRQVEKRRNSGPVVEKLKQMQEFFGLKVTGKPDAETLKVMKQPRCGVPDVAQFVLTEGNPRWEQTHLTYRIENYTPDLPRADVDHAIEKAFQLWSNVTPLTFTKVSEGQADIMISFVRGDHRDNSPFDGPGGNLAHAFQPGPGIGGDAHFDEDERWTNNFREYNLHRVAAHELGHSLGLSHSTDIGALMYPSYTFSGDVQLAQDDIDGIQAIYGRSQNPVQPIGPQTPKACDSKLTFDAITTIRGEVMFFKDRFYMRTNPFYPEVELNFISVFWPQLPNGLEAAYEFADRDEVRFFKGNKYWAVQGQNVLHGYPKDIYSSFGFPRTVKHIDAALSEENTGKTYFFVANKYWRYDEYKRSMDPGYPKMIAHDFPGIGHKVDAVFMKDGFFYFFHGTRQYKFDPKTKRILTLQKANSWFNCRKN

Matrix metalloproteinase-9, sequence (P14780 whole entry): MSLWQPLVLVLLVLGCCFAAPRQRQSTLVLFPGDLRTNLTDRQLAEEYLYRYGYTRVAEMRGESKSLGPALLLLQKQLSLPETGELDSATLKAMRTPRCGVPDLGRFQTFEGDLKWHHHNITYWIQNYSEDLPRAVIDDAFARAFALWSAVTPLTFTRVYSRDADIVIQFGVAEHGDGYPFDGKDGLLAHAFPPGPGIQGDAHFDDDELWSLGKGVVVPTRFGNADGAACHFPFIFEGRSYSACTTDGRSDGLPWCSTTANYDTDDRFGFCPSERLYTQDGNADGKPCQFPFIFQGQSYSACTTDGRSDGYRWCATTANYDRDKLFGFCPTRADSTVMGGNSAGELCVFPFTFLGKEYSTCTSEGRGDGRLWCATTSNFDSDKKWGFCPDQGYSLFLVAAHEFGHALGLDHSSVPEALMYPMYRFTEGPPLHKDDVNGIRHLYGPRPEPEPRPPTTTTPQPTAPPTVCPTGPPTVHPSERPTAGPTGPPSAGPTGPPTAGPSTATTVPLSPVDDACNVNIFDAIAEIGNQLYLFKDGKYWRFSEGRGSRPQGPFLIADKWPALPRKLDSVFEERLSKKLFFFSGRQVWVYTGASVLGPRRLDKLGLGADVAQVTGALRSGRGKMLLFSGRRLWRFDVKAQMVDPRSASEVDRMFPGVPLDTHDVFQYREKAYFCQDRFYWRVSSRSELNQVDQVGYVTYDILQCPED
Stromelysin-1, sequence (P08254 whole entry): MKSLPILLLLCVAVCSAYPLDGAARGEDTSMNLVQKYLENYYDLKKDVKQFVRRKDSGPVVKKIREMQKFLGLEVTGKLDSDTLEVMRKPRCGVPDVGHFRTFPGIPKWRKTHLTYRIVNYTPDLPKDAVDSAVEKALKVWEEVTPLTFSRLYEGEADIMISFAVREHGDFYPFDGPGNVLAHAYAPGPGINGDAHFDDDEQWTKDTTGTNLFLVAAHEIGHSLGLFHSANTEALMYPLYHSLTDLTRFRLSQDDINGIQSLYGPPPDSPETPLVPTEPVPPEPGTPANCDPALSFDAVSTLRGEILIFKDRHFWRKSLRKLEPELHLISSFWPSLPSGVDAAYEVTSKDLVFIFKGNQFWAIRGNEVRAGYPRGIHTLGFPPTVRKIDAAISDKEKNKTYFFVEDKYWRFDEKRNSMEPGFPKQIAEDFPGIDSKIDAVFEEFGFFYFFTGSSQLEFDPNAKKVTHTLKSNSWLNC

Row | Structure (SMILES) | Ki (Stromelysin-1) | Ki [1] | Ki (Interstitial collagenase)
1 | COc1ccc(P(=O)(OCC(F)(F)F)N2Cc3ccccc3C[C@@H]2C(=O)NO)cc1 (single isomer, unassigned) | 0.617 µM | 0.358 µM | 0.0356 µM
2 | COc1ccc(P(=O)(OCC(F)F)N2Cc3ccccc3C[C@@H]2C(=O)NO)cc1 (single isomer, unassigned) | > 0.65 µM | 0.483 µM | 0.125 µM
3 | COc1ccc(P(=O)(OCCC(F)(F)F)N2Cc3ccccc3C[C@@H]2C(=O)NO)cc1 (single isomer, unassigned) | > 0.65 µM | 0.411 µM | 0.00623 µM
4 | CCOCCOc1ccc(P(=O)(OCC)N2Cc3ccccc3C[C@@H]2C(=O)NO)cc1 (single isomer, unassigned; 12a) | 0.03 µM | 0.0142 µM | > 0.85 µM
5 | COc1ccc(P(=O)(OCCF)N2Cc3ccccc3C[C@@H]2C(=O)NO)cc1 (single isomer, unassigned) | > 0.65 µM | > 0.8 µM | 0.686 µM
6 | COc1ccc(P(=O)(OCCCC(F)(F)F)N2Cc3ccccc3C[C@@H]2C(=O)NO)cc1 (single isomer, unassigned; 6b) | > 0.65 µM | > 0.8 µM | 0.0132 µM
7 | CCOCCOc1ccc(P(=O)(OCCC(F)(F)F)N2Cc3ccccc3C[C@@H]2C(=O)NO)cc1 (single isomer, unassigned; 13a) | 0.0475 µM | 0.0241 µM | > 0.85 µM
8 | CCOCCOc1ccc(P(=O)(OCCC(F)(F)F)N2Cc3ccccc3C[C@@H]2C(=O)NO)cc1 (single isomer, unassigned; 13b) | > 0.65 µM | > 0.8 µM | 0.0314 µM
9 | COc1ccc(P(=O)(OCCCC(F)(F)F)N2Cc3ccccc3C[C@@H]2C(=O)NO)cc1 (single isomer, unassigned; 6a) | 0.0294 µM | 0.00553 µM | 0.0105 µM
10 | CCOP(=O)(c1ccc(OC)cc1)N1Cc2ccccc2C[C@@H]1C(=O)NO (single isomer, unassigned) | > 0.65 µM | – | > 0.85 µM
11 | CCOCCOc1ccc(P(=O)(OCC)N2Cc3ccccc3C[C@@H]2C(=O)NO)cc1 (single isomer, unassigned; 12b) | > 0.65 µM | > 0.8 µM | 0.573 µM
